From US6593365B1, “Diflunisal esters and related compounds” (The University of Queensland, priority 1997, dated 2003)

Tests used:
[1] = Intrinsic (maximum) solubility in water at pH 1.5; format: physicochemical; conditions: water at pH 1.5, 25 1° C.; U = Undetectable
[2] = Maximum solubility in 2% BSA Krebs-Henseleit buffer (pH 7.4); format: physicochemical; conditions: 25 1° C.
Description: The intrinsic solubility of diflunisal esters is extremely low (TABLE 2). The more lipophilic the analogue, the higher the solubility of solute under these conditions.

[3] = target: T1, BSA (bovine serum albumin) (Bos taurus, UniProt P02769); conditions: 2% BSA; Hung et al., 1996; cited from earlier work
T1 construct: BSA (bovine serum albumin, fraction V, Sigma); purchased Sigma; host or cells: bovine serum (fraction V)
T1 sequence (P02769 25-607): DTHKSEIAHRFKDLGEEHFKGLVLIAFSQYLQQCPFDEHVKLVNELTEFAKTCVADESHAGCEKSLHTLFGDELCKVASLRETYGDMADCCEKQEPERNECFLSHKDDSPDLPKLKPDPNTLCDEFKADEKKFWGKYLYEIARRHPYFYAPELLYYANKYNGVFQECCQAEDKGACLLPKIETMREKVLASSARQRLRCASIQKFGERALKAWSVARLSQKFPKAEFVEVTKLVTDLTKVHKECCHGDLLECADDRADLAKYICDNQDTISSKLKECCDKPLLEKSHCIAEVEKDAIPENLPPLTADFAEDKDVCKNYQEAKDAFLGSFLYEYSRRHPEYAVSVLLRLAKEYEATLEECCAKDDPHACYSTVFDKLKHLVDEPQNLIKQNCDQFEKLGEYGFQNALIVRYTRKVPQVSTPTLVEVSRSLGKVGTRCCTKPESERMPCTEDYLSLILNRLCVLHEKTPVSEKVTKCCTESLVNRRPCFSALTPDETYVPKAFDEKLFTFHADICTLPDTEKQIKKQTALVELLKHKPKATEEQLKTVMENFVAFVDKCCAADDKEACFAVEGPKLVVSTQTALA

[4] = tested on: in-situ perfused rat liver; experiment: In-situ rat liver perfusions, hepatic extraction (Example 4); format: in vitro ADME; conditions: 2% BSA in Krebs-Henseleit buffer as perfusate; hepatic extraction=1- hepatic availability (F)
Method: The hepatic availability (F) for the O-acyl esters of SA and DF was determined using a once through in-situ perfused rat liver preparation (Mellick and Roberts, 1996, J Pharm Pharmacol 48:738-743). Liver was perfused with protein-free Krebs-Henseleit buffer at 30 mL/min for aspirin analogues and with Krebs-Henseleit buffer containing 2% BSA for diflunisal esters studies. Since the solubilities of the diflunisal esters in protein-free media were very low, 2% BSA were used to help to solubilize these compounds. Briefly, 50 μL of a saturated solution of the particular O-acyl SA or DF in Krebs-Henseleit buffer was injected as a bolus into the portal vein cannula. Perfusate outflow samples have collected via a fraction collector over 3 min. 100 μL of these samples was assayed by HPLC to determine the residual concentration of presented ester and the quantity of phenolic metabolite (SA or DF) collected from the perfused liver. The HPLC assay was a modification of the method used by Owen et al. (1987, J Chrom B Biomed Appl 416 293-302) and Rumble et al. (1981, J Chrom 225 252-260).
The hepatic availability (F) was calculated from the ratio of the area under the first moment curve, i.e., outflow concentration time-time profile to the area under the curve for the salicylate phenolic esters, with the assistance of the Moments Calculator 2.2 program for Macintosh computer developed by Robert Purves (1994, J Pharm Sci 83:202-205).

[5] = tested on: human platelet rich plasma; experiment: Platelet aggregation induced by arachidonic acid; format: cell-based; conditions: compound 600 µM, 37° C., arachidonic acid 200 µM
Method in brief: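 Citrated human PRP ([…]) preincubated with compound 3–45 min at 37 °C under stirring, then challenged with 200 µM arachidonic acid (final). Aggregation quantified as area under the turbidimetric curve; non-responding samples given 20 µM ADP to verify platelet viability.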

[6] = In vitro non-enzymatic hydrolysis in Krebs-Henseleit buffer; format: physicochemical; conditions: pH 7.4, 25° C., n=5
Method in brief: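 Derivatives dissolved in Krebs-Henseleit buffer, pH 7.4, 25±1° C, with no protein or 2% w/v BSA; solutions sonicated and centrifuged, supernatant sampled over time. First-order hydrolysis rate constant k derived from ester concentration vs time, and half-life calculated from k.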

Compound	Maximum solubility [1]	Maximum solubility [2]	Maximum solubility ([2]; mean standard deviation (n=3))	fub (unbound fraction) [3]	Hepatic extraction [4]	Platelet Aggregation (% of control) ([5]; preincubation 3 minutes)	Platelet Aggregation (% of control) ([5]; preincubation 5 minutes)	Platelet Aggregation (% of control) ([5]; preincubation 8 minutes)	Platelet Aggregation (% of control) ([5]; preincubation 10 minutes)	Platelet Aggregation (% of control) ([5]; preincubation 12 minutes)	Platelet Aggregation (% of control) ([5]; preincubation 15 minutes)	Platelet Aggregation (% of control) ([5]; preincubation 20 minutes)	Platelet Aggregation (% of control) ([5]; preincubation 25 minutes)	Platelet Aggregation (% of control) ([5]; preincubation 45 minutes)	Hydrolysis rate constant (k) ([6]; Krebs-Henseleit buffer 0% BSA, U = Undetectable)	Hydrolysis rate constant (k) ([6]; Krebs-Henseleit buffer 2% BSA)
CC(=O)Oc1ccc(-c2ccc(F)cc2F)cc1C(=O)O [Compound C2D, acetyldiflunisal]	0.03 mM	7.57 mM	2200 ± 70 µg/mL	0.27 ± 0.02	0.49	92.3 ± 0.5 % of control	67.3 ± 0.9 % of control	27.9 ± 1.1 % of control	0 % of control	0 % of control	0 % of control	0 % of control	0 % of control	0 % of control	0.0378 ± 0.0105 hour^1	0.0238 ± 0.0095 hour^1
CCCCCC(=O)Oc1ccc(-c2ccc(F)cc2F)cc1C(=O)O [Compound C6D, n-hexanoyldiflunisal]	–	44.77 mM	15580 ± 300 µg/mL	0.08 ± 0.00	0.62	97.2 ± 0.2 % of control	94.7 ± 0.3 % of control	93.3 ± 0.2 % of control	90.1 ± 2.1 % of control	89.3 ± 0.1 % of control	71.7 ± 1.9 % of control	45.6 ± 0.5 % of control	0 % of control	0 % of control	–	0.0056 ± 0.0042 hour^1
